Experimental data from patent publication US20070128217A1 (priority 2003, published 2007).

Assays:
[1] = system: rabbit serum obtained by immunizing a rabbit with the SARS-CoV strain Frankfurt 1; assay type: binding; design: Binding of a rabbit serum to linear peptides / Binding of a rabbit serum to looped peptides / Rabbit serum linear peptides / Rabbit serum looped peptides / Binding of a rabbit serum to linear peptides of protein N of SARS-CoV Urbani (Rabbit serum linear peptides) / Binding of a rabbit serum to looped/cyclic peptides of protein N of SARS-CoV Urbani (Rabbit serum looped peptides): unit not given here
[2] = system: control sera (pooled serum of ten healthy LUMC hospital workers; commercial negative donor pooled serum from the Dutch bloodbank); assay type: binding, human; design: Binding of Control serum LUMC to linear peptides / Binding of Control serum Blood-bank to linear peptides / Binding of Control serum LUMC to looped peptides / Binding of Control Serum Blood-Bank to Looped peptides / Binding of Control serum LUMC to linear peptides of the protein M of SARS-CoV Urbani / Binding of Control serum Blood-bank to linear peptides of the protein M of SARS-CoV Urbani / Binding of Control serum LUMC to looped peptides of the protein M of SARS-CoV Urbani / Binding of Control Serum Blood-Bank to Looped peptides of the protein M of SARS-CoV Urbani: unit not given here
[3] = system: antibodies in sera from SARS patients (sera 1a, 1b, 2, 6, 37, 62, London, SARS-yellow, SARS-green); assay type: binding, human; design: Binding of serum 6 to linear peptides of protein X1 of SARS-CoV Urbani / Binding of serum 37 to linear peptides of protein X1 of SARS-CoV Urbani / Binding of serum 6 to looped/cyclic peptide (PEPSCAN-ELISA) / Binding of serum 37 to looped/cyclic peptide (PEPSCAN-ELISA) / Binding of serum 37 to looped/cyclic peptides of protein X1 of SARS-CoV Urbani / Binding of serum 6 to linear peptides of protein X2 / Binding of serum 37 to linear peptides of protein X2 / Binding of serum 37 to looped/cyclic peptides of protein X2 of SARS-CoV Urbani / Binding of serum 6 to linear peptides of protein M of SARS-CoV Urbani / Binding of serum 37 to linear peptides of protein M of SARS-CoV Urbani / Binding of serum 6 to looped/cyclic peptides of protein M of SARS-CoV Urbani / Binding of serum 37 to looped/cyclic peptides of protein M of SARS-CoV Urbani / Binding of serum 6 to linear peptides of protein X3 of SARS-CoV Urbani / Binding of serum 37 to linear peptides of protein X3 of SARS-CoV Urbani / Binding of serum 37 to looped/cyclic peptides of protein X3 of SARS-CoV Urbani / Binding of serum 6 to linear peptides of protein X4 of SARS-CoV Urbani / Binding of serum 37 to linear peptides of protein X4 of SARS-CoV Urbani / Binding of serum 37 to looped/cyclic peptides of protein X4 of SARS-CoV Urbani / Binding of serum 6 to linear peptides of protein X5 of SARS-CoV Urbani / Binding of serum 37 to linear peptides of protein X5 of SARS-CoV Urbani / Binding of serum 37 to looped/cyclic peptides of protein X5 of SARS-CoV Urbani / Binding of serum 6 to linear peptides of protein N of SARS-CoV Urbani / Binding of serum 37 to linear peptides of protein N of SARS-CoV Urbani / Binding of serum 6 to linear peptide (PEPSCAN-ELISA) / Binding of serum 1a to looped/cyclic peptides of protein N of SARS-CoV Urbani / Binding of serum 1b to looped/cyclic peptides of protein N of SARS-CoV Urbani / Binding of serum 2 to looped/cyclic peptides of protein N of SARS-CoV Urbani / Binding of serum 6 to looped/cyclic peptides of protein N of SARS-CoV Urbani / Binding of serum 37 to looped/cyclic peptides of protein N of SARS-CoV Urbani / Binding of serum 62 to looped/cyclic peptides of protein N of SARS-CoV Urbani / Binding of serum London to looped/cyclic peptides of protein N of SARS-CoV Urbani / Binding of serum SARS-green to looped/cyclic peptides of protein N of SARS-CoV Urbani: unit not given here
[4] = system: recombinant human anti-SARS-CoV antibody 03-018; assay type: binding; design: Binding of antibody 03-018 to linear peptides of the N protein of SARS-CoV Urbani / Binding of antibody 03-018 to looped/cyclic peptides of the N protein of SARS-CoV Urbani: unit not given here

| Sequence | Binding of a rabbit serum to linear peptides of protein N of SARS-CoV Urbani (Rabbit serum linear peptides) [1] | Binding of a rabbit serum to looped/cyclic peptides of protein N of SARS-CoV Urbani (Rabbit serum looped peptides) [1] | Binding of serum 1a to linear peptides of protein N of SARS-CoV Urbani [3] | Binding of serum 1a to looped/cyclic peptides of protein N of SARS-CoV Urbani [3] | Binding of serum 1b to linear peptides of protein N of SARS-CoV Urbani [3] | Binding of serum 1b to looped/cyclic peptides of protein N of SARS-CoV Urbani [3] | Binding of serum 2 to linear peptides of protein N of SARS-CoV Urbani [3] | Binding of serum 2 to looped/cyclic peptides of protein N of SARS-CoV Urbani [3] | Binding of serum 6 to looped/cyclic peptides of protein N of SARS-CoV Urbani [3] | Binding of serum 37 to looped/cyclic peptides of protein N of SARS-CoV Urbani [3] | Binding of serum 62 to looped/cyclic peptides of protein N of SARS-CoV Urbani [3] | Binding of serum London to looped/cyclic peptides of protein N of SARS-CoV Urbani [3] | Binding of serum SARS-green to looped/cyclic peptides of protein N of SARS-CoV Urbani [3] | Binding of serum SARS-yellow to looped/cyclic peptides of protein N of SARS-CoV Urbani [3] | Binding of antibody 03-018 to linear peptides of the N protein of SARS-CoV Urbani [4] | Binding of antibody 03-018 to looped/cyclic peptides of the N protein of SARS-CoV Urbani [4] | Binding of Control Serum Blood-Bank to Looped peptides [2] | Binding of Control serum Blood-bank to linear peptides [2] | Binding of Control serum LUMC to linear peptides [2] | Binding of Control serum LUMC to looped peptides [2] | other results |
| --- | --- | --- | --- | --- | --- | --- | --- | --- | --- | --- | --- | --- | --- | --- | --- | --- | --- | --- | --- | --- | --- |
| NVILLNKHIDAYKTF | 0.2 | 0.6 | 0.2 | 0.5 | 0.1 | 0.3 | 0.2 | 0.4 | 0.3 | 0.7 | 0.7 | 0.9 | 0.3 | 0.7 | 0.1 | 0.2 | – | – | – | – | Control Serum Blood-Bank Looped peptides [2]: 0.8; Control serum Blood-bank linear peptides [2]: 0.7; Control serum LUMC linear peptides [2]: 0.7; Control serum LUMC looped peptides [2]: 0.7; Binding of serum 6 to linear peptides of protein N of SARS-CoV Urbani [3]: 0.1; Binding of serum 37 to linear peptides of protein N of SARS-CoV Urbani [3]: 0.7; Binding of serum 62 to linear peptides of protein N of SARS-CoV Urbani [3]: 0.6; Binding of serum London to linear peptides of protein N of SARS-CoV Urbani [3]: 0.5; Binding of serum SARS-green to linear peptides of protein N of SARS-CoV Urbani [3]: 0.3; Binding of serum SARS-yellow to linear peptides of protein N of SARS-CoV Urbani [3]: 0.6 |
| NVTQAFGRRGPEQTQ | – | – | – | 0.3 | – | 0.2 | – | 0.3 | 0.2 | 0.5 | 0.4 | 0.4 | 0.3 | 0.3 | 0.1 | 0.2 | 0.5 | 0.7 | 0.7 | 0.5 | Recognition of the peptide by the rabbit serum [1]: recognized; Binding of serum 1a to linear peptide (PEPSCAN-ELISA) [3]: 0.2; Binding of serum 1b to linear peptide (PEPSCAN-ELISA) [3]: 0.1; Binding of serum 2 to linear peptide (PEPSCAN-ELISA) [3]: 0.2; Binding of serum 6 to linear peptide (PEPSCAN-ELISA) [3]: 0.2; Binding of serum 37 to linear peptide (PEPSCAN-ELISA) [3]: 0.6; Binding of serum 62 to linear peptide (PEPSCAN-ELISA) [3]: 0.7; Binding of serum London to linear peptide (PEPSCAN-ELISA) [3]: 0.5; Binding of serum SARS-green to linear peptide (PEPSCAN-ELISA) [3]: 0.5; Binding of serum SARS-yellow to linear peptide (PEPSCAN-ELISA) [3]: 0.6 |
| PINTNSGPDDQIGYY | 0.1 | 0.4 | 0.2 | 0.4 | 0.2 | 0.4 | 0.2 | 0.4 | 0.2 | 0.7 | 0.5 | 0.4 | 0.8 | 0.5 | 0.1 | 0.2 | 0.5 | 0.7 | 0.7 | 0.6 | Binding of serum 6 to linear peptides of protein N of SARS-CoV Urbani [3]: 0.2; Binding of serum 37 to linear peptides of protein N of SARS-CoV Urbani [3]: 0.9; Binding of serum 62 to linear peptides of protein N of SARS-CoV Urbani [3]: 0.7; Binding of serum London to linear peptides of protein N of SARS-CoV Urbani [3]: 0.4; Binding of serum SARS-green to linear peptides of protein N of SARS-CoV Urbani [3]: 0.3; Binding of serum SARS-yellow to linear peptides of protein N of SARS-CoV Urbani [3]: 0.6 |
| PKGFYAEGSRGGSQA | 0.1 | 0.1 | – | 0.3 | – | 0.3 | – | 0.3 | 0.2 | 0.4 | 0.5 | 0.3 | 0.4 | 0.2 | 0.1 | 0.2 | 0.5 | 0.8 | 0.7 | 0.5 | Binding of serum 1a to linear peptide (PEPSCAN-ELISA) [3]: 0.3; Binding of serum 1b to linear peptide (PEPSCAN-ELISA) [3]: 0.1; Binding of serum 2 to linear peptide (PEPSCAN-ELISA) [3]: 0.2; Binding of serum 6 to linear peptide (PEPSCAN-ELISA) [3]: 0.2; Binding of serum 37 to linear peptide (PEPSCAN-ELISA) [3]: 0.6; Binding of serum 62 to linear peptide (PEPSCAN-ELISA) [3]: 0.6; Binding of serum London to linear peptide (PEPSCAN-ELISA) [3]: 0.5; Binding of serum SARS-green to linear peptide (PEPSCAN-ELISA) [3]: 0.0; Binding of serum SARS-yellow to linear peptide (PEPSCAN-ELISA) [3]: 0.5 |
